Results: patent publication US11339156B2, “3-(1H-pyrazol-4-yl)pyridine allosteric modulators of the M4 muscarinic acetylcholine receptor” (Merck Sharp & Dohme Corp., priority 2017, dated 2022)

Target: T1, human M4 muscarinic acetylcholine receptor (Homo sapiens, UniProt P08173)
T1 construct: expressed in transfected cells
T1 sequence (P08173 1-479): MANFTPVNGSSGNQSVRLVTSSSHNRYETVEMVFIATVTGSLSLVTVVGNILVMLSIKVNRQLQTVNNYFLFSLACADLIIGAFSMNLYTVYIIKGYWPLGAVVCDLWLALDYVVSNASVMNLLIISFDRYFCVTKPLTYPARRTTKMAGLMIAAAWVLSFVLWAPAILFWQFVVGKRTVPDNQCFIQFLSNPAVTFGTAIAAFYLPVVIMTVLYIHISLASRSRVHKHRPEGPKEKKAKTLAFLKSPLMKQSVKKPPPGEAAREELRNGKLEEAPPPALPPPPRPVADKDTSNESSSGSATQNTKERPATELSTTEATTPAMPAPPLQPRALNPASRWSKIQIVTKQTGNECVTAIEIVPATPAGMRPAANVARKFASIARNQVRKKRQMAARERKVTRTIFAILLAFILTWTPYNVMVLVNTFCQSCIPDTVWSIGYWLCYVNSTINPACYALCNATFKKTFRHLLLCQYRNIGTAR
Assay: human FLIPR-based M4 PAM assay (CHO-K1 cells with human M4 receptor and Gαqi5, calcium dye fluorescence)
Format: cell-based
Details: inflection point of 4 parameter logistic fit; acetylcholine added at 20% of maximum response; read-out: M4PAM IP
Method in brief: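 CHO-K1 cells were loaded with calcium dye at 37 °C for ~1 h. Fluorescence (ex 470–495/em 515–575 nm) was read for 4 min after test compound at increasing concentrations, then 3.5 min after acetylcholine at an EC20; sometimes a third addition at EC70 followed. The value is the inflection point of a 4-parameter logistic fit.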

Q: For `CC(C)(Cn1cc(-c2ccc(C(N)=O)nc2-c2ccn3ccnc3c2)cn1)C(F)(F)F` [Example 132, 6-(imidazo[1,2-a]pyridin-7-yl)-5-(1-(3,3,3-trifluoro-2,2-dimethylpropyl)-1H-pyrazol-4-yl)picolinamide], which EC50 is on record?
A: The EC50 was 249 nM.

Q: For `CC1(Cn2cc(-c3ccc(C#N)nc3-c3ccn4ccnc4c3)cn2)CC1(F)F` (stereo not shown) [Example 134, 5-(1-((2,2-difluoro-1-methylcyclopropyl)methyl)-1H-pyrazol-4-yl)-6-(imidazo[1,2-a]pyridin-7-yl)picolinonitrile], which EC50 is on record?
A: Its EC50 is 57.5 nM.

Q: For `Cc1ccc(-c2cnn(CCC(C)(C)F)c2)c(-c2ccc3c(c2)C(=O)N(C)C3)n1` [Example 9, 6-{3-[1-(3-fluoro-3-methylbutyl)-1H-pyrazol-4-yl]-6-methylpyridin-2-yl}-2-methyl-2,3-dihydro-1H-isoindol-1-one], which EC50 is on record?
A: The EC50 was 80.8 nM.

Q: For `Cc1cn2ccc(-c3nc(C#N)ccc3-c3cnn(CC(C)(C)C)c3)cc2n1` [Example 81, 5-[1-(2,2-dimethylpropyl)-1H-pyrazol-4-yl]-6-(2-methylimidazo[1,2-a]pyridin-7-yl)pyridine-2-carbonitrile], which EC50 is on record?
A: The EC50 was 24.7 nM.

Q: How did the EC50 turn out when `Cc1nc2cc(-c3nc(C#N)ccc3-c3cnn(CC(C)(C)CC(F)F)c3)ccc2n1C` [Example 34, 5-[1-(4,4-difluoro-2,2-dimethylbutyl)-1H-pyrazol-4-yl]-6-(1,2-dimethyl-1H-benzimidazol-5-yl)pyridine-2-carbonitrile] was run?
A: Its EC50 is 54.2 nM.

Q: `Cc1cn2ccc(-c3nc(C#N)ccc3-c3cnn(CC(C)(O)C(F)(F)F)c3)cc2n1` (stereo not shown) [Example 125, 6-(2-methylimidazo[1,2-a]pyridin-7-yl)-5-(1-(3,3,3-trifluoro-2-hydroxy-2-methylpropyl)-1H-pyrazol-4-yl)picolinonitrile] was tested. Which EC50 did it give?
A: Its EC50 is 161 nM.

Q: How did the EC50 turn out when `CC1(Cn2cc(-c3ccc(C#N)nc3-c3ccn4ccnc4c3)cn2)CCOC1` (racemic) [Example 108, 6-(imidazo[1,2-a]pyridin-7-yl)-5-(1-((3-methyltetrahydrofuran-3-yl)methyl)-1H-pyrazol-4-yl)picolinonitrile] was run?
A: The EC50 was 95.9 nM.

Q: `Cc1ccc(-c2cnn(CC3CCC(F)(F)CC3)c2)c(-c2ccc3c(c2)C(=O)N(CC2CC2)C3)n1` [Example 14, 2-(cyclopropylmethyl)-6-(3-{1-[(4,4-difluorocyclohexyl)methyl]-1H-pyrazol-4-yl}-6-methylpyridin-2-yl)-2,3-dihydro-1H-isoindol-1-one] was tested. Which EC50 did it give?
A: Its EC50 is 48.8 nM.

Q: For `Cc1ccc(-c2cnn(CCC(C)C)c2C#N)c(-c2ccn3ccnc3c2)n1` [Example 136, 4-(2-imidazo[1,2-a]pyridin-7-yl-6-methylpyridin-3-yl)-1-(3-methylbutyl)-1H-pyrazole-5-carbonitrile], which EC50 is on record?
A: The EC50 was 741 nM.

Q: `N#Cc1ccc(-c2cnn(CC(F)(F)C(F)(F)C(F)(F)F)c2)c(-c2ccn3ccnc3c2)n1` [Example 24, 5-[1-(2,2,3,3,4,4,4-heptafluorobutyl)-1H-pyrazol-4-yl]-6-imidazo[1,2-a]pyridin-7-ylpyridine-2-carbonitrile] was tested. Which EC50 did it give?
A: The EC50 was 89.9 nM.

Q: Which EC50 does the source give for `Cc1ccc(-c2cnn(Cc3ccccc3)c2)c(-c2ccc3c(c2)C(=O)N(CC2CC2)C3)n1` [Example 11, 6-[3-(1-benzyl-1H-pyrazol-4-yl)-6-methylpyridin-2-yl]-2-(cyclopropylmethyl)-2,3-dihydro-1H-isoindol-1-one] here?
A: Its EC50 is 136 nM.

Q: Which EC50 does the source give for `Cc1cn2ccc(-c3nc(C#N)ccc3-c3cnn(CC(C)(C)F)c3)cc2n1` [Example 122, 5-(1-(2-fluoro-2-methylpropyl)-1H-pyrazol-4-yl)-6-(2-methylimidazo[1,2-a]pyridin-7-yl)picolinonitrile] here?
A: Its EC50 is 78.1 nM.

Q: How did the EC50 turn out when `CC(C)CCn1cc(-c2ccc(Cl)nc2-c2ccc3c(c2)C(=O)NC3)cn1` [Example 110, 6-(6-chloro-3-(1-isopentyl-1H-pyrazol-4-yl)pyridin-2-yl)isoindolin-1-one] was run?
A: The EC50 was 40.2 nM.

Q: How did the EC50 turn out when `Cc1ccc(-c2cnn(CCC(C)C)c2F)c(-c2ccn3ccnc3c2)n1` [Example 95, 7-{3-[5-fluoro-1-(3-methylbutyl)-1H-pyrazol-4-yl]-6-methylpyridin-2-yl}imidazo[1,2-a]pyridine] was run?
A: The EC50 was 79.9 nM.

Q: `CC(C)CCn1cc(-c2cccnc2-c2ccc3c(c2)C(=O)N(C2CCC2)C3)cn1` [Example 116, 2-cyclobutyl-6-{3-[1-(3-methylbutyl)-1H-pyrazol-4-yl]pyridin-2-yl}-2,3-dihydro-1H-isoindol-1-one] was tested. Which EC50 did it give?
A: The EC50 was 84.6 nM.

Q: `Cc1cn2ccc(-c3nc(C#N)ccc3-c3cnn(CCC(F)(F)C(F)(F)F)c3)cc2n1` [Example 29, 6-(2-methylimidazo[1,2-a]pyridin-7-yl)-5-[1-(3,3,4,4,4-pentafluorobutyl)-1H-pyrazol-4-yl]pyridine-2-carbonitrile] was tested. Which EC50 did it give?
A: The EC50 was 96.9 nM.

Q: For `Cc1cn2ccc(-c3nc(C#N)ccc3-c3cnn(CC(F)(F)C(F)F)c3)cc2n1` [Example 22, 6-(2-methylimidazo[1,2-a]pyridin-7-yl)-5-[1-(2,2,3,3-tetrafluoropropyl)-1H-pyrazol-4-yl]pyridine-2-carbonitrile], which EC50 is on record?
A: Its EC50 is 202 nM.

Q: Which EC50 does the source give for `Cc1nc2cc(-c3nc(C#N)ccc3-c3cnn(CC(C)(F)F)c3)ccc2n1C` [Example 31, 5-[1-(2,2-difluoropropyl)-1H-pyrazol-4-yl]-6-(1,2-dimethyl-1H-benzimidazol-5-yl)pyridine-2-carbonitrile] here?
A: The EC50 was 163 nM.

Q: `N#Cc1ccc(-c2cnn(CC3CC34CC4)c2)c(-c2ccn3ccnc3c2)n1` (stereo not shown) [Example 51, 6-imidazo[1,2-a]pyridin-7-yl-5-[1-(spiro[2.2]pent-1-ylmethyl)-1H-pyrazol-4-yl]pyridine-2-carbonitrile] was tested. Which EC50 did it give?
A: The EC50 was 54.6 nM.

Q: For `Cc1ccc(-c2cnn(CCC(C)C)c2)c(-c2ccc3c(c2)CN(C(=O)OC(C)(C)C)C3)n1` [Example 76, tert-butyl 5-{6-methyl-3-[1-(3-methylbutyl)-1H-pyrazol-4-yl]pyridin-2-yl}-1,3-dihydro-2H-isoindole-2-carboxylate], which EC50 is on record?
A: The EC50 was 76 nM.

Q: How did the EC50 turn out when `CN1Cc2ccc(-c3nc(C#N)ccc3-c3cnn(CC4(C)CC4)c3)cc2C1=O` [Example 50, 5-{1-[(1-methylcyclopropyl)methyl]-1H-pyrazol-4-yl}-6-(2-methyl-3-oxo-2,3-dihydro-1H-isoindol-5-yl)pyridine-2-carbonitrile] was run?
A: Its EC50 is 51.2 nM.

Q: Which EC50 does the source give for `CN1Cc2ccc(-c3nc(C#N)ccc3-c3cnn(CC(C)(C)C(F)F)c3)cc2C1=O` [Example 97, 5-[1-(3,3-difluoro-2,2-dimethylpropyl)-1H-pyrazol-4-yl]-6-(2-methyl-3-oxo-2,3-dihydro-1H-isoindol-5-yl)pyridine-2-carbonitrile] here?
A: Its EC50 is 45 nM.

Q: `Cc1cn2ccc(-c3nc(C#N)ccc3-c3cnn(CC4(F)CCC4)c3)cc2n1` [Example 118, 5-(1-((1-fluorocyclobutyl)methyl)-1H-pyrazol-4-yl)-6-(2-methylimidazo[1,2-a]pyridin-7-yl)picolinonitrile] was tested. Which EC50 did it give?
A: The EC50 was 30.7 nM.

Q: For `N#Cc1ccc(-c2cnn(CC3(CF)CC3)c2)c(-c2ccn3ccnc3c2)n1` [Example 19, 5-(1-{[1-(fluoromethyl)cyclo-propyl]methyl}-1H-pyrazol-4-yl)-6-imidazo[1,2-a]pyridin-7-ylpyridine-2-carbonitrile], which EC50 is on record?
A: The EC50 was 49.9 nM.

Q: For `N#Cc1ccc(-c2cnn(CC(F)C3CC3)c2)c(-c2ccn3ccnc3c2)n1` (stereo not shown) [Example 124, 5-(1-(2-cyclopropyl-2-fluoroethyl)-1H-pyrazol-4-yl)-6-(imidazo[1,2-a]pyridin-7-yl)picolinonitrile], which EC50 is on record?
A: Its EC50 is 60.5 nM.

Q: With `CN1Cc2ccc(-c3nc(C#N)c(F)cc3-c3cnn(CC4(C(F)(F)F)CC4)c3)cc2C1=O` [Example 54, 3-fluoro-6-(2-methyl-3-oxo-2,3-dihydro-1H-isoindol-5-yl)-5-(1-{[1-(trifluoromethyl)cyclo-propyl]methyl}-1H-pyrazol-4-yl)pyridine-2-carbonitrile] as the compound, how does the EC50 read?
A: Its EC50 is 44.7 nM.

Q: Which EC50 does the source give for `Cc1nc(-c2ccc3c(c2)nc(C)n3C)c(-c2cnn(CC(C)(C)C(F)(F)F)c2)cc1F` [Example 131, 5-(5-fluoro-6-methyl-3-(1-(3,3,3-trifluoro-2,2-dimethylpropyl)-1H-pyrazol-4-yl)pyridin-2-yl)-1,2-dimethyl-1H-benzo[d]imidazole] here?
A: The EC50 was 77.3 nM.

Q: For `N#Cc1ccc(-c2cnn(C[C@H]3C[C@@H]3C(F)(F)F)c2)c(-c2ccn3ccnc3c2)n1` [Example 25, 6-imidazo[1,2-a]pyridin-7-yl-5-(1-{[(1S,2S)-2-(trifluoromethyl)cyclo-propyl]methyl}-1H-pyrazol-4-yl)pyridine-2-carbonitrile], which EC50 is on record?
A: The EC50 was 78.1 nM.

Q: `Cc1cn2ncc(-c3nc(C#N)ccc3-c3cnn(CC(C)(C)C(F)(F)F)c3)cc2n1` [Example 39, 6-(2-methylimidazo[1,2-b]pyridazin-7-yl)-5-[1-(3,3,3-trifluoro-2,2-dimethylpropyl)-1H-pyrazol-4-yl]pyridine-2-carbonitrile] was tested. Which EC50 did it give?
A: The EC50 was 75.8 nM.

Q: Which EC50 does the source give for `CC(C)CCn1cc(-c2ccc(Cl)nc2-c2ccc3c(c2)C(=O)N(Cc2ccc(O)cc2)C3)cn1` [Example 114, 6-{6-chloro-3-[1-(3-methylbutyl)-1H-pyrazol-4-yl]pyridin-2-yl}-2-(4-hydroxybenzyl)-2,3-dihydro-1H-isoindol-1-one] here?
A: Its EC50 is 22.8 nM.

Q: How did the EC50 turn out when `CC(C)(C)Cn1cc(-c2ccc(C#N)nc2-c2ccc3nn[nH]c3c2)cn1` [Example 79, 6-(1H-benzotriazol-6-yl)-5-[1-(2,2-dimethylpropyl)-1H-pyrazol-4-yl]pyridine-2-carbonitrile] was run?
A: The EC50 was 38.4 nM.
